In patent US10898469B2, “Imidazolylamide derivative” (Sumitomo Dainippon Pharma Co., Ltd., priority 2016, dated 2021):

Legend:
Format in all cases: cell-based, human
[1] = system: HCT-116 cells; assay: Inhibition test for sphere-forming ability of cancer cells (Test Example 1), HCT-116; conditions: for (100%-inhibition rate of cell proliferation) at 1 μmol/L, HCT-116 / viability at 1 µM / IC50: HCT-116 cells; for (100%-inhibition rate of cell proliferation) at 1 μmol/L, HCT-116 / viability at 1 µM: value with %, 1 μmol/L; for viability at 1 µM: Homo sapiens, read-out: (100%-inhibition rate of cell proliferation) at 1 μmol/L; for IC50: concentration for 50% inhibition of cell proliferation, read-out: IC50 (μmol/L) HCT-116 (Sphere IC50 value); for inhibitory effect on the sphere-forming ability of cancer cells: Test Example 1, summary in words, cell line not given (HCT-116, HT-29, FaDu tested)
Procedure, shortened: (§1)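 Cells were seeded at 350-800 cells/well in ultra-low-attachment plates in serum-free DMEM/F12 with 2% B27, 20 ng/mL EGF, 10 ng/mL bFGF and 5 μg/mL insulin. Compounds were added at 0.1% final DMSO for 4 days. Viable cells were read by CellTiter-Glo luminescence to give Sphere IC50 (μmol/L).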

[2] = system: HT-29 cells; assay: Inhibition test for sphere-forming ability of cancer cells (Test Example 1), HT-29; conditions: for (100%-inhibition rate of cell proliferation) at 1 μmol/L, HT-29: value with %; for viability at 1 µM: Homo sapiens, read-out: (100%-inhibition rate of cell proliferation) at 1 μmol/L, 1 μmol/L, value with %; for IC50: concentration for 50% inhibition of cell proliferation, read-out: IC50 (μmol/L) HT-29 (Sphere IC50 value)
Procedure, shortened: as §1

[3] = system: FaDu cells; assay: Inhibition test for sphere-forming ability of cancer cells (Test Example 1), FaDu; conditions: for (100%-inhibition rate of cell proliferation) at 1 μmol/L, FaDu: value with %; for viability at 1 µM: Homo sapiens, read-out: (100%-inhibition rate of cell proliferation) at 1 μmol/L, 1 μmol/L, value with %; for IC50: concentration for 50% inhibition of cell proliferation, read-out: IC50 (μmol/L) FaDu (Sphere IC50 value)
Procedure, shortened: as §1

| SMILES | (100%-inhibition rate of cell proliferation) at 1 μmol/L, HCT-116 [1] [%] | (100%-inhibition rate of cell proliferation) at 1 μmol/L, HT-29 [2] [%] | (100%-inhibition rate of cell proliferation) at 1 μmol/L, FaDu [3] [%] | IC50 [1] [µmol/L] | IC50 [2] [µmol/L] | IC50 [3] [µmol/L] | also measured |
| --- | --- | --- | --- | --- | --- | --- | --- |
| CCCOc1ccc(C(=O)Nc2cn(Cc3cccc(Cl)c3)cn2)cn1 [Example 136] | 44.2 | 71.8 | 75.2 | – | – | – | – |
| CC(C)Oc1ccc(C(=O)Nc2cn(Cc3cccc(Cl)c3)cn2)cc1 [Example 140] | – | – | – | – | – | – | viability at 1 µM [1]: 31.4%; viability at 1 µM [2]: 83%; viability at 1 µM [3]: 81.8% |
| COc1ccc(Cn2cnc(NC(=O)c3ccc(OC)c(OC)c3)c2)cc1 [Example 164] | 37.4 | 89.0 | 92.3 | – | – | – | – |
| COc1ccc(C(=O)Nc2cn(Cc3cccc(C(F)(F)F)c3)cn2)cc1OC [Example 165] | 31.9 | 28.0 | 24.1 | – | – | – | – |
| COc1ccc(C(=O)Nc2cn(Cc3cccc(OC(F)(F)F)c3)cn2)cc1OC [Example 166] | 36.8 | 33.0 | 23.8 | – | – | – | – |
| COc1ccc(C(=O)Nc2cn(Cc3c(F)ccc(C)c3F)cn2)cc1OC [Example 167] | 30.5 | 15.6 | 59.3 | – | – | – | – |
| COc1ccc(C(=O)Nc2cn(Cc3ccc(C(C)C)cc3)cn2)cc1OC [Example 168] | 32.1 | 8.6 | 32.3 | – | – | – | – |
| COc1ccc(C(=O)Nc2cn(Cc3cccc(OCc4ccccc4)c3)cn2)cc1OC [Example 169] | 50.9 | 35.4 | 68.6 | – | – | – | – |
| COc1ccc(C(=O)Nc2cn(Cc3cc(Cl)nc(Cl)c3)cn2)cc1OC [Example 170] | 33.8 | 24.9 | 27.1 | – | – | – | – |
| COc1ccc(C(=O)Nc2cn(Cc3ccc(C(F)(F)F)o3)cn2)cc1OC [Example 171] | 36.4 | 33.8 | 29.6 | – | – | – | – |
| COc1ccc(C(=O)Nc2cn(Cc3ccc4c(c3)C(C)(C)CCC4(C)C)cn2)cc1OC [Example 172] | 34.3 | 16.6 | 42.3 | – | – | – | – |
| COc1ccc(C(=O)Nc2cn(Cc3ccc(Cl)s3)cn2)cc1OC [Example 173] | 29.5 | 21.6 | 21.4 | – | – | – | – |
| O=C(Nc1cn(Cc2cccc(Cl)c2)cn1)c1ccc2nccn2c1 [Example 176] | – | – | – | 7.16 | 3.43 | 5.16 | – |
| O=C(Nc1cn(Cc2cccc(C(F)(F)F)c2)cn1)c1ccc(CC(F)F)nc1 [Example 187] | – | – | – | 7.31 | 3.74 | 8.64 | – |
| O=C(Nc1cn(Cc2cccc(C(F)(F)F)c2)cn1)c1ccc2cccnc2c1 [Example 195] | – | – | – | > 10 | 5.55 | > 10 | – |
| O=C(Nc1cn(Cc2cccc(Cl)c2)cn1)c1ccc(-n2cccn2)nc1 [Example 196] | – | – | – | 0.76 | 3.78 | 0.89 | – |
| O=C(Nc1cn(Cc2cccc(Cl)c2)cn1)c1ccc(OCc2ccccc2)cc1 [Example 197] | 44.3 | 39.0 | 28.9 | – | – | – | – |
| Cc1ccc(C(=O)Nc2cn(Cc3cccc(Cl)c3)cn2)cn1 [Example 198] | 55.3 | 99.8 | 64.5 | – | – | – | – |
| O=C(Nc1cn(Cc2cccc(C(F)(F)F)c2)cn1)c1ccc(=O)[nH]c1 [Example 199] | 39.8 | 31.2 | 25.9 | – | – | – | – |
| COc1ccc(C(=O)Nc2cn(Cc3cccc(Cl)c3)cn2)cn1 [Example 202] | – | – | – | 0.96 | 5.68 | 6.87 | – |
| CCOc1ccc(C(=O)Nc2cn(Cc3cccc(Cl)c3)cn2)cn1 [Example 203] | – | – | – | 0.9 | 0.71 | 0.9 | – |
| COCCCOc1ccc(C(=O)Nc2cn(Cc3cccc(Cl)c3)cn2)cn1 [Example 204] | – | – | – | 4.56 | 0.72 | 0.86 | – |
| CN(C)CCOc1ccc(C(=O)Nc2cn(Cc3cccc(Cl)c3)cn2)cn1 [Example 205] | – | – | – | > 10 | 2.39 | 6.39 | – |

| SMILES | (100%-inhibition rate of cell proliferation) at 1 μmol/L, HCT-116 [1] [%] | (100%-inhibition rate of cell proliferation) at 1 μmol/L, HT-29 [2] [%] | (100%-inhibition rate of cell proliferation) at 1 μmol/L, FaDu [3] [%] | IC50 [1] [µmol/L] | IC50 [2] [µmol/L] | IC50 [3] [µmol/L] | also measured |
| --- | --- | --- | --- | --- | --- | --- | --- |
| O=C(Nc1cn(Cc2cccc(Cl)c2)cn1)c1ccc(OCc2ccccc2)nc1 [Example 206] | – | – | – | 0.69 | 0.09 | 0.09 | inhibitory effect on the sphere-forming ability of cancer cells [1]: particularly potent inhibitory effect |
| CC(C)Oc1ccc(C(=O)Nc2cn(Cc3cccc(Cl)c3)cn2)cn1 [Example 207] | – | – | – | 0.83 | 0.67 | 0.89 | – |
| O=C(Nc1cn(Cc2cccc(Cl)c2)cn1)c1ccc(OC2CCCC2)nc1 [Example 208] | – | – | – | > 10 | 0.81 | 5.33 | – |
| COc1ccc(C(=O)Nc2cn(Cc3cccc(C(F)(F)F)c3)cn2)cn1 [Example 209] | – | – | – | 4.24 | 4.95 | 6.45 | – |
| CCOc1ccc(C(=O)Nc2cn(Cc3cccc(C(F)(F)F)c3)cn2)cn1 [Example 210] | – | – | – | 0.81 | 0.82 | 0.79 | – |
| COc1ccc(C(=O)Nc2cn(Cc3cccc(OC(F)(F)F)c3)cn2)cn1 [Example 212] | – | – | – | 0.78 | 0.99 | 0.84 | – |
| CCOc1ccc(C(=O)Nc2cn(Cc3cccc(OC(F)(F)F)c3)cn2)cn1 [Example 213] | – | – | – | 0.81 | 0.65 | 0.79 | – |
| O=C(Nc1cn(Cc2cccc(C(F)(F)F)c2)cn1)c1ccc(OCC(F)(F)F)nc1 [Example 214] | – | – | – | 5.31 | 0.9 | 3.52 | – |
| CC(C)Oc1ccc(C(=O)Nc2cn(Cc3cccc(OC(F)(F)F)c3)cn2)cn1 [Example 215] | – | – | – | 0.88 | 0.66 | 0.85 | – |
| COc1ccc(C(=O)Nc2cn(Cc3c(F)ccc(C)c3F)cn2)cn1 [Example 216] | – | – | – | 0.08 | 0.07 | 0.09 | inhibitory effect on the sphere-forming ability of cancer cells [1]: particularly potent inhibitory effect |
| Cc1ccc(F)c(Cn2cnc(NC(=O)c3ccc(OC(C)C)nc3)c2)c1F [Example 217] | – | – | – | 0.22 | 0.48 | 0.75 | – |
| COc1cc(C(=O)Nc2cn(Cc3cccc(Cl)c3)cn2)cnc1OC [Example 218] | – | – | – | 0.58 | 0.06 | 0.08 | inhibitory effect on the sphere-forming ability of cancer cells [1]: particularly potent inhibitory effect |
| O=C(Nc1cn(Cc2cccc(Cl)c2)cn1)c1ccc(OCC(F)(F)F)nc1 [Example 219] | – | – | – | 0.92 | 8.34 | 9.4 | – |
| CCOc1ncc(C(=O)Nc2cn(Cc3cccc(Cl)c3)cn2)cc1Cl [Example 220] | – | – | – | > 10 | 4.25 | 0.77 | – |
| CCOc1ccc(C(=O)Nc2cn(Cc3c(F)ccc(C)c3F)cn2)cn1 [Example 221] | – | – | – | 0.51 | 0.59 | 0.89 | – |
| O=C(Nc1cn(Cc2cccc(OC(F)(F)F)c2)cn1)c1ccc(OCC(F)(F)F)nc1 [Example 222] | – | – | – | > 10 | 4.81 | 9.74 | – |
| Cc1ccc(F)c(Cn2cnc(NC(=O)c3ccc(OCC(F)(F)F)nc3)c2)c1F [Example 223] | – | – | – | 0.76 | 0.65 | 0.81 | – |
| Nc1ccc(C(=O)Nc2cn(Cc3cccc(Cl)c3)cn2)cn1 [Example 224] | – | – | – | 6.71 | 5.51 | 5.44 | – |
| O=C(Nc1cn(Cc2cccc(C(F)(F)F)c2)cn1)c1ccc(F)nc1 [Example 226] | 45.7 | 91.7 | 87.9 | – | – | – | – |
| Cn1cc(C(=O)Nc2cn(Cc3cccc(Cl)c3)cn2)ccc1=O [Example 243] | – | – | – | – | – | – | viability at 1 µM [1]: 23.8%; viability at 1 µM [2]: 19.5%; viability at 1 µM [3]: 29% |
| COCCOc1ccc(C(=O)Nc2cn(Cc3cccc(Cl)c3)cn2)cn1 [Example 244, N-[1-(3-Chlorobenzyl)-1H-imidazol-4-yl]-6-(2-methoxyethoxy)nicotinamide] | – | – | – | – | – | – | viability at 1 µM [1]: 46.7%; viability at 1 µM [2]: 27%; viability at 1 µM [3]: 36.7% |
| O=C(Nc1cc(-c2ccccc2)n[nH]1)c1cn(Cc2cccc(Cl)c2)cn1 [Example 259] | – | – | – | 0.92 | 0.74 | 0.74 | – |
| COCCOc1ccc(C(=O)Nc2cn(Cc3cccc(Cl)c3)cn2)cc1 [Example 265, N-[1-(3-Chlorobenzyl)-1H-imidazol-4-yl]-4-(2-methoxyethoxy)benzamide] | – | – | – | – | – | – | viability at 1 µM [1]: 41.7%; viability at 1 µM [2]: 33.1%; viability at 1 µM [3]: 41.2% |
